The values below come from patent publication US11998539B2, “Substituted aminoquinolones as DGKalpha inhibitors for immune activation” (Bayer Aktiengesellschaft, priority 2019, dated 2024).

pIC50: −log10 of the molar value.

Sequence of DGKα (P23743 other isoform, or with tags, fused parts or gaps): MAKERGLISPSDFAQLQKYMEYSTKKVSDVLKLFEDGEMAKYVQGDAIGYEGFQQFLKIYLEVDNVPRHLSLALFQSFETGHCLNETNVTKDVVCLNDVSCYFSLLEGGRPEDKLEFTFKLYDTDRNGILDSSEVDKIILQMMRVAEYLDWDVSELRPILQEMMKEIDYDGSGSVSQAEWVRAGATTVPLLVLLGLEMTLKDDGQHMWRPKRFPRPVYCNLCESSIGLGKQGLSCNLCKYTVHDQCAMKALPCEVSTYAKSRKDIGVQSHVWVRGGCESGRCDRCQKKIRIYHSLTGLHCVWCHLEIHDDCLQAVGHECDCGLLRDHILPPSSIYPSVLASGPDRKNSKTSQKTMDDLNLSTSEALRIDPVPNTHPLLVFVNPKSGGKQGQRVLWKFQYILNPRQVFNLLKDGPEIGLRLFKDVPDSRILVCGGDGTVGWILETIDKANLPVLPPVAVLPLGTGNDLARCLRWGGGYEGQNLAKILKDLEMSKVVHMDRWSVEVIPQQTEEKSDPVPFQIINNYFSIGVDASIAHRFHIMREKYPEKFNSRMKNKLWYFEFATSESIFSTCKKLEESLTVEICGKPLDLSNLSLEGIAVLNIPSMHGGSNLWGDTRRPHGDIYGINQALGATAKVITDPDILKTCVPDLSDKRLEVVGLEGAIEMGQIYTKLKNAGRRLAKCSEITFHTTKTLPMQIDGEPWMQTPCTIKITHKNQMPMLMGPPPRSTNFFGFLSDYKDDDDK

In this assay the target is DGKα (Homo sapiens (Human), UniProt P23743). Nature of the assay: Human DGKα kinase activity inhibition assay (ADP-Glo). In kind it is biochemical. Conditions: recombinant full-length human DGKα, 55 μM ATP, 7 μM 1,2-dioleoyl-sn-glycerol, read-out: IC50 values of examples in in vitro human DGKa kinase activity inhibition assays. The essentials:
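Activity was measured as ADP production, detected by luciferase luminescence after removal of unused ATP. The enzyme was baculovirus-expressed full-length human DGKα with a C-terminal FLAG tag. The substrate was 1,2-dioleoyl-sn-glycerol in detergent micelles, and compounds came from 100× DMSO solutions.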
For `Cn1c(=O)c(C(N)=O)c(N2CCC(O)(c3cc4ccccc4s3)CC2)c2ccccc21` [Example 456, 4-[4-(1-benzothiophen-2-yl)-4-hydroxypiperidin-1-yl]-1-methyl-2-oxo-1,2-dihydroquinoline-3-carboxamide], the pIC50 is 7.39.
In the case of `CN1C(=O)C(C)(C)c2cc(C3CCN(c4c(C#N)c(=O)n(C)c5ccccc45)CC3)ccc21` [Example 358, 1-methyl-2-oxo-4-[4-(1,3,3-trimethyl-2-oxo-2,3-dihydro-1H-indol-5-yl)piperidin-1-yl]-1,2-dihydroquinoline-3-carbonitrile] it was 7.36; in that of `Cn1c(=O)c(C#N)c(N2CCC(C)(c3nc4ccccc4o3)CC2)c2cc(F)ccc21` [Example 216, 4-[4-(1,3-benzoxazol-2-yl)-4-methylpiperidin-1-yl]-6-fluoro-1-methyl-2-oxo-1,2-dihydroquinoline-3-carbonitrile], 9.40; in that of `Cn1nccc1C1CCN(c2c(C#N)c(=O)n(C)c3ccccc23)CC1` [Example 149, 1-methyl-4-[4-(1-methyl-1H-pyrazol-5-yl)piperidin-1-yl]-2-oxo-1,2-dihydroquinoline-3-carbonitrile], 5.96.
With `Cc1ccc2oc(C3(C)CCN(c4c(C#N)c(=O)n(C)c5c(OC6CC6)cccc45)CC3)nc2c1` [Example 262, 8-(cyclopropyloxy)-1-methyl-4-[4-methyl-4-(5-methyl-1,3-benzoxazol-2-yl)piperidin-1-yl]-2-oxo-1,2-dihydroquinoline-3-carbonitrile], the negative-log IC50 (pIC50) was 7.44.
Consider `Cn1c(=O)c(C#N)c(N2CCC(c3nc4cc(OCC5CCCO5)ccc4o3)CC2)c2ccccc21` (stereo not shown) [Example 387, 1-methyl-2-oxo-4-(4-{5-[(oxolan-2-yl)methoxy]-1,3-benzoxazol-2-yl}piperidin-1-yl)-1,2-dihydroquinoline-3-carbonitrile], for which the negative-log IC50 (pIC50) was 8.05.
In the case of `CC(C)Oc1ccc(C2CCN(c3c(C(N)=O)c(=O)n(C)c4ccccc34)CC2)cc1` [Example 102, 1-methyl-2-oxo-4-(4-{4-[(propan-2-yl)oxy]phenyl}piperidin-1-yl)-1,2-dihydroquinoline-3-carboxamide] it was 9.52; in that of `Cc1ccc2oc(C3CCN(c4c(C#N)c(=O)n(C)c5ccc(OCC(F)F)cc45)CC3)nc2c1` [Example 407, 6-(2,2-difluoroethoxy)-1-methyl-4-[4-(5-methyl-1,3-benzoxazol-2-yl)piperidin-1-yl]-2-oxo-1,2-dihydroquinoline-3-carbonitrile], 7.32; in that of `Cn1c(=O)c(C(N)=O)c(N2CCC(c3nnc(-c4cccc(C(F)(F)F)c4)o3)CC2)c2cc(Br)ccc21` [Example 519], 7.70.
With `Cn1c(=O)c(C#N)c(N2CCC(c3ccc(C(N)=O)cc3)CC2)c2ccccc21` [Example 330, 4-[1-(3-cyano-1-methyl-2-oxo-1,2-dihydroquinolin-4-yl)piperidin-4-yl]benzamide] the figure was 6.66; with `Cn1c(=O)c(C#N)c(N2CCC(C)(c3nnc(-c4cccc(Cl)c4)o3)CC2)c2ccccc21` [Example 355, 4-{4-[5-(3-chlorophenyl)-1,3,4-oxadiazol-2-yl]-4-methylpiperidin-1-yl}-1-methyl-2-oxo-1,2-dihydroquinoline-3-carbonitrile], 6.85; with `Cn1c(=O)c(C#N)c(N2CCC(c3nnc(-c4ccccc4)o3)CC2)c2cc(Br)ccc21` [Example 441, 6-bromo-1-methyl-2-oxo-4-[4-(5-phenyl-1,3,4-oxadiazol-2-yl)piperidin-1-yl]-1,2-dihydroquinoline-3-carbonitrile], 7.96.
With `Cc1ccc2oc(C3(C)CCN(c4c(C#N)c(=O)n(C)c5cc(O)c(C#N)cc45)CC3)nc2c1` [Example 426, 7-hydroxy-1-methyl-4-[4-methyl-4-(5-methyl-1,3-benzoxazol-2-yl)piperidin-1-yl]-2-oxo-1,2-dihydroquinoline-3,6-dicarbonitrile] the figure was 7.89; with `Cn1c(=O)c(C(N)=O)c(N2CCC(C)(c3nc4ccccc4o3)CC2)c2ccc(C(F)(F)F)cc21` [Example 306, 4-[4-(1,3-benzoxazol-2-yl)-4-methylpiperidin-1-yl]-1-methyl-2-oxo-7-(trifluoromethyl)-1,2-dihydroquinoline-3-carboxamide], 8.39; with `Cn1c(=O)c(C#N)c(N2CCC(c3nc4ccccc4o3)CC2)c2ccc(Br)cc21` [Example 27, 4-[4-(1,3-benzoxazol-2-yl)piperidin-1-yl]-7-bromo-1-methyl-2-oxo-1,2-dihydroquinoline-3-carbonitrile], 8.70.
Regarding `COC1(c2nc3ccccc3o2)CCN(c2c(C#N)c(=O)n(C)c3ccccc23)CC1` [Example 390, 4-[4-(1,3-benzoxazol-2-yl)-4-methoxypiperidin-1-yl]-1-methyl-2-oxo-1,2-dihydroquinoline-3-carbonitrile], the negative-log IC50 (pIC50) is 8.46.
In the case of `Cc1ccc2oc([C@H]3CCN(c4c(C#N)c(=O)n(C)c5ccccc45)[C@@H](C)C3)nc2c1` [Example 326, 1-methyl-4-[(2S,4S)-2-methyl-4-(5-methyl-1,3-benzoxazol-2-yl)-1-piperidyl]-2-oxo-quinoline-3-carbonitrile] it was 7.47; in that of `Cc1ccc2oc(C3(C)CCN(c4c(C#N)c(=O)n(C)c5cc(C6CC(F)(F)C6)ccc45)CC3)nc2c1` [Example 252, 7-(3,3-difluorocyclobutyl)-1-methyl-4-[4-methyl-4-(5-methyl-1,3-benzoxazol-2-yl)piperidin-1-yl]-2-oxo-1,2-dihydroquinoline-3-carbonitrile], 7.89.
With `COc1ccc(C2CCN(c3c(C#N)c(=O)n(C)c4ccccc34)CC2)cc1` [Example 41, 4-[4-(4-methoxyphenyl)piperidin-1-yl]-1-methyl-2-oxo-1,2-dihydroquinoline-3-carbonitrile] the figure was 8.31; with `CCCOc1ccc(C2CCN(c3c(C#N)c(=O)n(C)c4ccccc34)CC2)cc1` [Example 42, 1-methyl-2-oxo-4-[4-(4-propoxyphenyl)piperidin-1-yl]-1,2-dihydroquinoline-3-carbonitrile], 7.96; with `Cc1ccc2oc(C3CCN(c4c(C(N)=O)c(=O)n(C)c5ccc(OCC(F)F)cc45)CC3)nc2c1` [Example 504, 6-(2,2-difluoroethoxy)-1-methyl-4-[4-(5-methyl-1,3-benzoxazol-2-yl)piperidin-1-yl]-2-oxo-1,2-dihydroquinoline-3-carboxamide], 6.62.
With `Cc1ccc2oc(C3CCN(c4c(C#N)c(=O)n(C)c5cc(N(C)CCO)c(C)cc45)CC3)nc2c1` [Example 551, 7-[(2-hydroxyethyl)(methyl)amino]-1,6-dimethyl-4-[4-(5-methyl-1,3-benzoxazol-2-yl)piperidin-1-yl]-2-oxo-1,2-dihydroquinoline-3-carbonitrile] the figure was 10.00.
As for `Cc1ccc2oc(C3(C)CCN(c4c(C(N)=O)c(=O)n(C)c5ccc(N6C[C@H](O)CC6=O)cc45)CC3)nc2c1` [Example 280, 6-[(4R)-4-hydroxy-2-oxopyrrolidin-1-yl]-1-methyl-4-[4-methyl-4-(5-methyl-1,3-benzoxazol-2-yl)piperidin-1-yl]-2-oxo-1,2-dihydroquinoline-3-carboxamide], the pIC50 was 5.32.
In the case of `Cc1ccc(C2CCN(c3c(C#N)c(=O)n(C)c4ccccc34)CC2)cc1` [Example 83, 1-methyl-4-[4-(4-methylphenyl)piperidin-1-yl]-2-oxo-1,2-dihydroquinoline-3-carbonitrile] it was 8.36.
On to `COCc1ccc2c(c1)c(N1CCC(C)(c3nc4cc(C)ccc4o3)CC1)c(C#N)c(=O)n2C` [Example 213, 6-(methoxymethyl)-1-methyl-4-[4-methyl-4-(5-methyl-1,3-benzoxazol-2-yl)piperidin-1-yl]-2-oxo-1,2-dihydroquinoline-3-carbonitrile], for which the pIC50 is 7.41.
In the case of `Cc1ccc2oc(C3CCN(c4c(C(N)=O)c(=O)n(C)c5cc(F)c(C#N)cc45)CC3)nc2c1` [Example 564, 6-cyano-7-fluoro-1-methyl-4-[4-(5-methyl-1,3-benzoxazol-2-yl)piperidin-1-yl]-2-oxo-1,2-dihydroquinoline-3-carboxamide] it was 8.48.
With `Cc1ccc(-c2csc(C3CCN(c4c(C#N)c(=O)n(C)c5ccccc45)CC3)n2)cc1` [Example 374, 1-methyl-4-{4-[4-(4-methylphenyl)-1,3-thiazol-2-yl]piperidin-1-yl}-2-oxo-1,2-dihydroquinoline-3-carbonitrile] the figure was 7.47; with `Cc1ccc2oc(C3CCN(c4c(C#N)c(=O)n(C)c5cc(F)ccc45)CC3)nc2c1` [Example 238, 7-fluoro-1-methyl-4-[4-(5-methyl-1,3-benzoxazol-2-yl)piperidin-1-yl]-2-oxo-1,2-dihydroquinoline-3-carbonitrile], 7.92; with `Cc1ccccc1-n1ccc(C2CCN(c3c(C(N)=O)c(=O)n(C)c4ccccc34)CC2)n1` [Example 473, 1-methyl-4-{4-[1-(2-methylphenyl)-1H-pyrazol-3-yl]piperidin-1-yl}-2-oxo-1,2-dihydroquinoline-3-carboxamide], 7.64.
In the case of `Cn1c(=O)c(C#N)c(N2CCC(c3nc4ccccc4o3)CC2)c2ccc(C(F)(F)F)cc21` [Example 291, 4-[4-(1,3-benzoxazol-2-yl)piperidin-1-yl]-1-methyl-2-oxo-7-(trifluoromethyl)-1,2-dihydroquinoline-3-carbonitrile] it was 7.96.
As for `Cc1ccc2oc(C3(C)CCN(c4c(C#N)c(=O)n(C)c5ccc(OC6CCC6)cc45)CC3)nc2c1` [Example 278, 6-(cyclobutyloxy)-1-methyl-4-[4-methyl-4-(5-methyl-1,3-benzoxazol-2-yl)piperidin-1-yl]-2-oxo-1,2-dihydroquinoline-3-carbonitrile], the pIC50 was 6.32.
